From patent publication US12673039B2, “Methods of inducing autophagy using coumarin derivatives and related compounds” (Buck Institute for Research on Aging, priority 2019, dated 2026)

Tests used:
HLH-30 = HLH-30 expression and activity in C. elegans (GFP reporter, immunoblot, qRT-PCR); assay type: in vivo; details: for HLH-30:GFP protein by immunoblot: MAH235 young adult worms
Experimental: FIG. 9A-9B illustrates that coumarin 106 (“C1”. “AIC106”) induces TFEB (HLH-30) signaling in C. elegans. FIG. 9A) Nuclear TFEB homologue HLH-30 levels in HLH-30 GFP tagged worms grown from day 1 at 20° C. as a measure of TFEB activation. Values are reported as average GFP intensity visualized at a young adult stage, day-5; **p<0.0002 versus control. FIG. 9B) TFEB mRNA levels by qPCR following 24 hrs of C1 treatment (10 μM 20 μM) in worms+/−HLH30 RNAi. Values represent RNA levels versus DMSO-only control RNAi; *p<0.001 versus control RNAi.
FIG. 18, panels A-F: AIC106 (Autophagy Inducing Coumarin-106) induces transcription of TFEB and its targets in vitro in rat N27 neuronal cells and in vivo in C. elegans. Panel A) Relative fold change in TFEB promoter activity compared to DMSO-control was determined by quantifying luciferase activity in supernatants collected from rat N27 neuronal cells post-24 hour treatment with C1 (AIC106), D1 and D2. [n=3 independent experiments (mean±SEM), **p<0.01, by one-way ANOVA with Dunnett's multiple comparisons test]. Panel B) Chemical structure of AIC106 and its structural derivative D1 and D2. Panel C) Relative fold change in mRNA of tfeb and its targets compared to DMSO-control were quantified using qRT-PCR in N27 neuronal cells post-24 hour treatment with AIC106 [N=3 independent experiments (mean±SD). *p<0.05, **p<0.01 and ****p<0.0001, by two-way ANOVA with Sidak's multiple comparisons test]. Panel D) Changes in HLH-30 expression were measured by quantifying GFP intensity in an individual GFP-tagged HLH-30 strain (MAH235) post-24 hours treatment with AIC106 and DMSO-control. [N=3 independent experiments (mean±SD). ****p<0.0001, by unpaired t-test]. Panel E) HLH-30; GFP (MAH235) were monitored by fluorescence microscopy. Panel F) Relative fold change in mRNA of hlh-30 and its targets compared to DMSO-control were quantified using qRT-PCR in young adult wild type N2 worms post-24 hours treatment with AIC106. [N=3 independent experiments (mean±SD). *p<0.05, **p<0.01 and ***p<0.001, by two-way ANOVA with Sidak's multiple comparisons test].
FIG. 22, panels A-H: AIC106-induced HLH-30 expression is mediated by the nuclear hormone receptor DAF-12. Panel A) The upstream promoter region (2 kB) of hlh-30 was analyzed by JASPAR CORE database to determine DAF-12 binding sites (1: SEQ ID NO:1, 2: 1: SEQ ID NO:2, 3: SEQ ID NO:3, 4: SEQ ID NO:4, 5: SEQ ID NO:5, 6: SEQ ID NO:6, 7: SEQ ID NO:7, 8: SEQ ID NO:8, 9: SEQ ID NO:9, 10: SEQ ID NO:10, 11: SEQ ID NO:11, 12: SEQ ID NO:12). Panel B) Relative fold change in mRNA of hlh-30 compared to DMSO-control was quantified using qRT-PCR in young adult wild-type N2 and daf-12(rh61rh411) worms post-24 hours treatment with AIC106. [N=3 independent experiments (mean±SD). **p<0.01, by one-way ANOVA with Sidak's multiple comparisons test]. Panel C) Effects of AIC106 on DAF-12 activity was determined in a mammalian one-hybrid assay by quantifying changes in the luciferase activity of DAF-12 ligand (dafachronic acid, DA) induced treatment. [N=3 independent experiments (mean±SD). *p<0.05 **p<0.01 and ***p<0.001, by one-way ANOVA with Tukey's multiple comparisons test]. Panel D) Schematic diagram showing that addition of AIC106 or inhibition of DAF-12 ligand synthesis, which leads to un-liganded DAF-12 may result in enhanced HLH-30 expression. Panel E) Dafadine-A (DFA), a specific inhibitor of key enzyme required for synthesis of DAF-12 ligand induces HLH-30 expression. Immunoblot for GFP was performed on protein lysate of HLH-30; GFP (MAH235) young adult worms treated with DFA or DMSO-control for 24 hours. Panel F) Protection against mitochondrial toxin (FCCP) was determined by quantifying survival of young adult worms treated 24 hours with DFA or DMSO-control. [N=3 independent experiments (mean±SD). **p<0.01, by two-way ANOVA with Tukey's multiple comparisons test]. […]

C. elegans = experiment: FCCP mitochondrial toxin stress assay in C. elegans; assay type: in vivo; details: for resistance to mitochondrial toxin FCCP (survival): wild type worms, 24 hours treatment
Experimental: FIG. 20, panels A-H: AIC106 treatment improves mitochondrial health. Panel A) Changes in mitochondrial membrane potential were determined by quantifying fluorescence intensity of individual TMRM stained wild type N2 worms post-24 hours treatment with AIC106 and DMSO-control. [N=3 independent experiments (mean±SD). ****p<0.0001, by unpaired t-test]. Panel B) TMRM stained wild type N2 worms were monitored by fluorescence microscopy. Panel C) Mitophagy flux upon AIC106 treatment was determined in DLM14 young adult worms (TOMM-7 tagged to a peptide linked dual-Fluorescent GFP) by quantifying relative fold changes in ratio of monomeric-fluorescent protein (mFP) to dual-fluorescent protein (dFP) compared to DMSO-control. Panel D) Ability of AIC106 to rescue mitochondrial toxin (FCCP) sensitivity was determined as percent survival of 24 hours treated AIC106 and DMSO-control wild type N2 worms. [N=3 independent experiments (mean±SD). ****p<0.0001, by two-way ANOVA with Sidak's multiple comparisons test]. Panel E) Ability of AIC106 to rescue enhanced mitochondrial toxin (FCCP, 20 μM) sensitivity in mitophagy deficient parkin/pdr-1 mutant was determined as percent survival of 24 hours treated AIC106 and DMSO-control pdr-1(tm598) and pdr-1(tm598); hlh-30(tm1978) mutant. […] Panel F) Effect of AIC106 on mitochondrial biogenesis was determined by quantifying GFP fluorescence intensity in an individual SJ4143 worm (GFP targeted in mitochondria of intestinal cells) post-72 hours of treatment with AIC106 and DMSO-control. […] Panel G) SJ4143 worms were monitored by fluorescence microscopy. Panel H) Effects of AIC106 on basal (B) and maximum (M) mitochondrial respiration rate were determined by quantifying oxygen consumption rate (OCR) in wild type N2 and hlh-30(tm1978) mutant strain post-24 hours of treatment with AIC106 and DMSO-control. […]
FIG. 22, panels A-H: AIC106-induced HLH-30 expression is mediated by the nuclear hormone receptor DAF-12. […] Panel F) Protection against mitochondrial toxin (FCCP) was determined by quantifying survival of young adult worms treated 24 hours with DFA or DMSO-control. […]

Structure (SMILES) | activity and expression of HLH-30 (HLH-30; Example 1 (FIG. 9)) | HLH-30 expression (GFP intensity) (HLH-30; GFP-tagged HLH-30 strain MAH235, 24 hours) | HLH-30:GFP protein by immunoblot (HLH-30; 24 hours) | HLH-30 expression (hlh-30 mRNA) (HLH-30; daf-12(rh61rh411) null mutant) | mRNA levels of HLH-30 target genes (HLH-30; wild type N2 worms, 24 hours) | FCCP sensitivity of pdr-1 mutant (C. elegans; pdr-1(tm598), FCCP 20 μM, hlh-30 dependent) | resistance to mitochondrial toxin FCCP (survival) (C. elegans)
O=c1oc2c3c4c(cc2c2c1CCC2)CCCN4CCC3 [C1, 2,3,6,7,10,11-Hexahydro-1H,5H-cyclopenta(3,4)(1)benzopyrano(6,7,8-ij)quinolizin-12(9H)-one] | induction of activity and expression of the worm TFEB homologue HLH-30 | induces HLH-30 expression in worms | increase in HLH-30:GFP protein | failed to induce HLH-30 expression | mRNA levels of several HLH-30 target genes were also increased | significantly rescue enhanced mitochondrial sensitivity of pdr-1 mutant | more resistant to mitochondrial uncoupler FCCP
Cc1cccc(C)c1OCc1cc(C(=O)N2CCC(c3ccncc3)CC2)no1 [DFA, dafadine-A, reference compound] |  |  | significant increase in HLH-30 expression |  |  |  | protected against mitochondrial toxin FCCP
